“Also recorded” adds a separate entry of the source.
Tests used:
[1] = cited from earlier work
D2R = conditions: read-out: D2R Ki; eticlopride; cited from earlier work
5HT1A = molecular target: T1, 5HT1A (Homo sapiens, UniProt P08908); experiment: 5HT1A [35S]GTPγS binding functional assay; assay type: biochemical
T1 sequence (P08908 1-422): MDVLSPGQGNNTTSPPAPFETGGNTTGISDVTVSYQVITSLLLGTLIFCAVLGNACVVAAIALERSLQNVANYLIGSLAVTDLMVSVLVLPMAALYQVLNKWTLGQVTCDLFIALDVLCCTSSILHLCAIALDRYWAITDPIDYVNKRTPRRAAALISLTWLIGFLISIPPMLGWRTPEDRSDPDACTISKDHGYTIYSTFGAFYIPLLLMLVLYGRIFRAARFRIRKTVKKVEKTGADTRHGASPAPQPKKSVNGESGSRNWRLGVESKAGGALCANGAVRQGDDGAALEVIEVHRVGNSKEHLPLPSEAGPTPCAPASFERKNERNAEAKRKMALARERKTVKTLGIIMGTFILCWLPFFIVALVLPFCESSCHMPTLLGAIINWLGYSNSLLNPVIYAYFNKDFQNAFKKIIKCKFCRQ

C57BL/6J mice = experiment: Locomotor activity, basal and oxycodone-induced, open-field chambers
Long-Evans rats = experiment: Oxycodone-induced conditioned place preference; assay type: in vivo, rat
human D2LR = human D2LR (Homo sapiens, UniProt P14416); assay type: binding; conditions: read-out: D2LR Ki ± S.E.M.; full-length analogues, Table 2; HEK 293
human D2LR, sequence (P14416 whole entry): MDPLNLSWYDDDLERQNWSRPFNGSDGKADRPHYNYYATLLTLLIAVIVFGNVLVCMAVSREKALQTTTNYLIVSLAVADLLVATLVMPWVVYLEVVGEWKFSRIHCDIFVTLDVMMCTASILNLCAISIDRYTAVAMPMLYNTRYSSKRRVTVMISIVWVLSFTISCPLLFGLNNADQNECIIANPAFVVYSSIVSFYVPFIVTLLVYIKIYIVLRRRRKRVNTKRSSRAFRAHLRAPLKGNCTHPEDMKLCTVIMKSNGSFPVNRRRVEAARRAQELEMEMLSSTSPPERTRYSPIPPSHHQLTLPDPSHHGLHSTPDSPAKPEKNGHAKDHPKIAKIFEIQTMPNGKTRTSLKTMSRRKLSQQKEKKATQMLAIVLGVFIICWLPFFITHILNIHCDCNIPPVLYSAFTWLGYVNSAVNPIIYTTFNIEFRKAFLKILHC

human D4.4R = molecular target: T2, human D4.4R (Homo sapiens, UniProt P21917); assay type: binding; conditions: read-out: D4.4R Ki ± S.E.M.; full-length analogues, Table 2; HEK 293
T2 sequence (P21917 1-419): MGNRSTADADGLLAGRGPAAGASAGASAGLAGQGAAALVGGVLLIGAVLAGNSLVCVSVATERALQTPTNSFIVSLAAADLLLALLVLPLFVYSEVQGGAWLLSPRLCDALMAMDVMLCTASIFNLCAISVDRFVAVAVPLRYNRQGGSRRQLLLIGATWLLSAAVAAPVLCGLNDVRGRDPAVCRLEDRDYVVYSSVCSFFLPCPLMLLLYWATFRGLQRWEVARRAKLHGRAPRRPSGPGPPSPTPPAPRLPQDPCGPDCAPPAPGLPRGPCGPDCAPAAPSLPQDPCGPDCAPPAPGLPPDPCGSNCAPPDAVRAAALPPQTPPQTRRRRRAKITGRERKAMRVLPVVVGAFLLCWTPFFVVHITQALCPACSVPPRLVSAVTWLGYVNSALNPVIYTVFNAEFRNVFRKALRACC

human D3R = human D3R (Homo sapiens, UniProt P35462); assay type: binding; conditions: Table 2
human D3R, sequence (P35462 whole entry): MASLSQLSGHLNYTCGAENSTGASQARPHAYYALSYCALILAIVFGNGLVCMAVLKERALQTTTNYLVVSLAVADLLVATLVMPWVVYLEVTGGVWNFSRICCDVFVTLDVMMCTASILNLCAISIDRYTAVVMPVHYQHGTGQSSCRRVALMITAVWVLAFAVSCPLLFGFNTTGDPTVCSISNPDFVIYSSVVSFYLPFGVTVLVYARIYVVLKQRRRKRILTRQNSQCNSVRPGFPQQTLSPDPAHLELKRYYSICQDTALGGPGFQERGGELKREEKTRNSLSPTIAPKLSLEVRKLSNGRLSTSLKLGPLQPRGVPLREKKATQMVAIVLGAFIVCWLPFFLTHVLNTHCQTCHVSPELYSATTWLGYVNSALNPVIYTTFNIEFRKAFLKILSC

dogs = conditions: cited from earlier work
kappa opioid receptor = kappa opioid receptor (Homo sapiens, UniProt P41145); experiment: Opioid receptor binding at 10 μM; conditions: at a concentration of 10 μM
kappa opioid receptor, sequence (P41145 whole entry): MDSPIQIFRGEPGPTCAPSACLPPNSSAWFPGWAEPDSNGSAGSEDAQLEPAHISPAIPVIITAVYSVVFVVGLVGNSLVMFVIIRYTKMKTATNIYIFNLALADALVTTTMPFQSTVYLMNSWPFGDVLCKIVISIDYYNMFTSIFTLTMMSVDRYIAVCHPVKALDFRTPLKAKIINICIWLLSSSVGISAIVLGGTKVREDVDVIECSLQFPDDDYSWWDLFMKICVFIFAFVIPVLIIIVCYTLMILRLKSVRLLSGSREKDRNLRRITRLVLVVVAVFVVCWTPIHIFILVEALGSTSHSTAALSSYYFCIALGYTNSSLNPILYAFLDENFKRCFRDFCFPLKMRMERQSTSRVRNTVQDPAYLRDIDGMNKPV

delta opioid receptor = delta opioid receptor (Homo sapiens, UniProt P41143); experiment: Opioid receptor binding at 10 μM; conditions: at a concentration of 10 μM
delta opioid receptor, sequence (P41143 whole entry): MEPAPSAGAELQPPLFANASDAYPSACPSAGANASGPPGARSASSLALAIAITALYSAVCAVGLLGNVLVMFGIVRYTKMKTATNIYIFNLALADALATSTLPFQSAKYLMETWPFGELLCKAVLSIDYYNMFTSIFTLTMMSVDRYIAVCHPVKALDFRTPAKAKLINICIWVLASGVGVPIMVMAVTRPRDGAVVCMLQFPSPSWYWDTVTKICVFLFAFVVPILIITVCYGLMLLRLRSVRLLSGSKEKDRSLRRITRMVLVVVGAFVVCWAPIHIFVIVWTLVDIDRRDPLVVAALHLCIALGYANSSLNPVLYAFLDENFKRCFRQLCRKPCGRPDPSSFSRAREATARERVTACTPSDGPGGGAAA

mu opioid receptor = mu opioid receptor (Homo sapiens, UniProt P35372); experiment: Opioid receptor binding at 10 μM; conditions: at a concentration of 10 μM
mu opioid receptor, sequence (P35372 whole entry): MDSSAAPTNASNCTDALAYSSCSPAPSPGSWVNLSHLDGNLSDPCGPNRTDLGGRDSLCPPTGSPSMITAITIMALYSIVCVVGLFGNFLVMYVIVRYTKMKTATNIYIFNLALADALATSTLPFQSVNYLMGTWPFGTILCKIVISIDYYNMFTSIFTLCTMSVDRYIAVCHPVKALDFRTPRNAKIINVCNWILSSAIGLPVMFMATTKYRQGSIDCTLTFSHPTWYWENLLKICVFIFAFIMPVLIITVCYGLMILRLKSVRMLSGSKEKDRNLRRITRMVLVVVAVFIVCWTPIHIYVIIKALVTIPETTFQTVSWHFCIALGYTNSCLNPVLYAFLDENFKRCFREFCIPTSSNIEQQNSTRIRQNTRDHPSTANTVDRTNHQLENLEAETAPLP

In the case of `O=C(NCC[C@@H](O)CN1CCN(c2cccc(Cl)c2Cl)CC1)c1cc2ccccc2[nH]1` [R-PG648], the metabolic stability [1] is listed as “metabolic instability”.

In the case of `CCc1cc(Cl)c(OC)c(C(=O)NC[C@@H]2CCCN2CC)c1O` [Eticlopride], the Ki (D2R) is listed as 0.086 nM.

In the case of `CCc1cccc(N2CCN(CC(O)CCNC(=O)c3cc4ccccc4o3)CC2)c1Cl` (stereo not shown) [Compound 25, N-(4-(4-(2-Chloro-3-ethylphenyl)piperazin-1-yl)-3-hydroxybutyl)benzofuran-2-carboxamide], the “functional profile at 5HT1A” value (5HT1A) is reported as “functional agonists”.

With `CCc1cccc(N2CCN(CCCCNC(=O)c3cc4ccccc4[nH]3)CC2)c1Cl` [Compound 22, N-(4-(4-(2-Chloro-3-ethylphenyl)piperazin-1-yl)butyl)-1H-indole-2-carboxamide] the “functional profile at 5HT1A” value (5HT1A) was “functional agonists”.

For `COc1ccc2c3c1O[C@H]1C(=O)CC[C@@]4(O)[C@@H](C2)N(C)CC[C@]314` [oxycodone, reference compound], the “effect of oxycodone on locomotor activity” value (C57BL/6J mice; mice, oxycodone 4 mg/kg i.p.) was “significant increases in locomotor activity” and the “CPP produced by oxycodone” value (Long-Evans rats; rats, oxycodone 3 mg/kg i.p. versus saline conditioning) was “produced significant CPP”.

With “N-(4-(4-(2-Chloro-3-ethylphenyl)piperazin-1-yl)butyl)-6-methylimidazo[2,1-b]thiazole-5-carboxamide [Compound 28]” the Ki (human D2LR) was 4.65 ± 1.24 nM, the Ki (human D4.4R) was 143 ± 3.18 nM and the D2R/D3R (human D3R; binding selectivity, ratio of Ki values (fold)) was 5. For the same compound, the Ki (human D3R; read-out: D3R Ki ± S.E.M., full-length analogues, HEK 293) was 0.941 ± 0.13 nM.

With `CCc1cccc(N2CCN(CCCCNC(=O)c3cc4ccccc4o3)CC2)c1Cl` [Compound 24, N-(4-(4-(2-Chloro-3-ethylphenyl)piperazin-1-yl)butyl)benzofuran-2-carboxamide] the “functional profile at 5HT1A” value (5HT1A) was “functional agonists”.

For `Cc1ncoc1-c1nnc(SCCCN2C[C@@H]3C[C@]3(c3ccc(C(F)(F)F)cc3F)C2)n1C` [GSK598,809], the “blood pressure effect in the presence of cocaine” value (dogs) is listed as “significant hypertension”.

In the case of `CCc1cc(Cl)c(OC)c(N2CCN(CC(O)CCNC(=O)c3cc4ccccc4[nH]3)CC2)c1` (stereo not shown) [Compound 19, N-(4-(4-(3-Chloro-5-ethyl-2-methoxyphenyl)piperazin-1-yl)-3-hydroxybutyl)-1H-indole-2-carboxamide], the “binding to kappa opioid receptor” value (kappa opioid receptor) is reported as “does not bind”, the “binding to delta opioid receptor” value (delta opioid receptor) is reported as “does not bind” and the “binding to mu opioid receptor” value (mu opioid receptor) is reported as “does not bind”. For the same compound, the “effect on acute oxycodone-induced hyperactivity” value (C57BL/6J mice; mice, 5, 15 mg/kg i.p. 15 min before oxycodone 4 mg/kg, day 2) was “attenuated; also recorded: dose-dependently inhibited”, the “effect on basal locomotor activity” value (C57BL/6J mice; mice, 5, 15 mg/kg i.p. alone, day 1) was “no effect on locomotion” and the “effect on acquisition of repeated oxycodone-induced locomotor sensitization” value (C57BL/6J mice; mice, 5, 15 mg/kg i.p. daily before oxycodone 4 mg/kg, day 2-day 6) was “dose-dependently blocked”. For the same compound, the “effect on expression of oxycodone prime-induced locomotor sensitization after 2 days of withdrawal” value (C57BL/6J mice; mice, day 9, oxycodone 4 mg/kg challenge without pretreatment) was “blocked; also recorded: long-lasting inhibition”, the “effect on oxycodone-induced CPP at 15 mg/kg” value (Long-Evans rats; rats, 15 mg/kg i.p., p<0.05 compared to (Vehicle + oxycodone) group) was “significant reduction” and the “CPP produced by compound alone” value (Long-Evans rats; rats, 15 mg/kg i.p., paired with saline, 15 mg/kg) was “did not produce CPP; also recorded: did not produce significant place preference”. For the same compound, the “effect on oxycodone-induced CPP” value (Long-Evans rats; rats, 5, 15 mg/kg i.p. 15 min before each oxycodone injection (3 mg/kg i.p.)) was “dose-dependently attenuated; also recorded: dose-dependently blocked”.
